Measurements from patent US9212201B2, “Antifungal and antiparasitic polyene macrolides” (priority 2010, dated 2015).
pIC50: −log10 of the molar value. ≈ marks a conversion by molar mass, not a printed value.

Legend:
C. albicans = assay: In vitro antifungal susceptibility CLSI M27-A2 (MIC, MFC); type: cell-based; details: C. albicans (10)
C. glabrata = assay: as above; type: cell-based; details: C. glabrata (10)
C. parapsilosis = assay: as above; type: cell-based; details: C. parapsilosis (10)
C. krusei = assay: as above; type: cell-based; details: C. krusei (10)
C. rugosa = assay: as above; type: cell-based; details: C. rugosa (2)
C. dubliniensis = assay: In vitro antifungal susceptibility CLSI M27-A2 (MIC); type: cell-based; details: C. dubliniensis (5)
Description: (§1) In addition, MFC ([…]) was done for each species. The geometric mean (GM) was calculated for each isolate using all three results. All testing was performed in triplicate to verify the reproducibility of the data.
Eighty-three Candida strains were evaluated. This included 12 different Candida species, which are the species that are most commonly involved in the majority of candidal infections in humans. The species include ten isolates of C. albicans, C. glabrata, C. parapsilosis, C. tropicalis, C. krusei, C. lusitaniae, and C. kefyr, along with five isolates of C. dubliniensis, and two isolates each of C. guilliermondii and C. rugosa. In addition, there was also one isolate each of C. sake, C. lipolytica, C. sphaerica and C. norvegica.

A. flavus = assay: In vitro antifungal susceptibility CLSI M38-A (MIC); type: cell-based; details: 5 isolates
Description: as §1
(§2) A total of 31 isolates of Aspergillus were evaluated. This included six different species of Aspergillus which included six strains of A. fumigatus, and 5 strains of A. flavus, A. terreus, A. niger and A. glaucus.

A. fumigatus = assay: as above; type: cell-based; details: A. fumigates, 6 isolates
Description: as §1, §2

A. glaucus = assay: as above; type: cell-based; details: 5 isolates
Description: as §1, §2

A. niger = assay: as above; type: cell-based; details: 5 isolates
Description: as §1, §2

A. terreus = assay: as above; type: cell-based; details: 5 isolates
Description: as §1, §2

A. versicolor = assay: as above; type: cell-based; details: 5 isolates
Description: as §1, §2

Acremonium spp. = assay: as above; type: cell-based; details: 5 isolates
Description: as §1
(§3) Several of the more common molds were also tested and evaluated including five strains of Alternaria, Cladosporium, Scopulariopsis, Acremonium, and Paecilomyces. Also evaluated were some of the more uncommon fungi such as Exophilia jeanselmei (3), Emmonsia parvum (Chrysporium parvum) (2) and Epioccum spp. (2). Conventional ATCC strains of different Candida and Aspergillus species were used as controls.

Alternaria spp. = assay: as above; type: cell-based; details: 5 isolates
Description: as §1, §3

Cladosporium spp. = assay: as above; type: cell-based; details: 5 isolates
Description: as §1, §3

[1] = system: Emmonsia parvum (Chrysporium parvum); assay: as above; type: cell-based; details: 2 isolates
Description: as §1, §3

Epioccum spp. = assay: as above; type: cell-based; details: 2 isolates
Description: as §1, §3

Paecilomyces spp. = assay: as above; type: cell-based; details: 5 isolates
Description: as §1, §3

Scopulariopsis spp. = assay: as above; type: cell-based; details: 5 isolates
Description: as §1, §3

E. jeanselmei = assay: as above; type: cell-based, Exophilia jeanselmei; details: 3 isolates
Description: as §1, §3

[2] = system: Candida albicans (ATCC 44858); details: 3 mg/kg PO; 15-day observation
[3] = system: L. donovani intracellular amastigotes
[4] = human, in vivo; cited from earlier work
[5] = 28-day toxicology in rats (clinical chemistry, NOAEL)
[6] = rat sera, amphotericin B 0.5 mg, intravenously three days a week
[7] = rat sera, amphotericin B 1.0 mg, intravenously three days a week
[8] = rat sera, amphotericin B 1.5 mg, intravenously three days a week

C[C@@H]1[C@H](O)[C@@H](C)/C=C/C=C/C=C/C=C/C=C/C=C/C=C/[C@H](O[C@@H]2O[C@H](C)[C@@H](O)[C@H](N)[C@@H]2O)C[C@@H]2O[C@](O)(C[C@@H](O)C[C@@H](O)[C@H](O)CC[C@@H](O)C[C@@H](O)CC(=O)O[C@H]1C)C[C@H](O)[C@H]2C(=O)O [Amphotericin B, amphotericin B]
GM (geometric mean MIC) (C. albicans): 0.612 µg/mL
MFC (C. albicans): 1 µg/mL (≈ 1.08 µM)
MIC50 (C. albicans): 0.5 µg/mL (≈ 0.541 µM)
MIC90 (C. albicans): 1 µg/mL (≈ 1.08 µM)
MIC Range (C. albicans): 0.12 to 1 µg/mL
GM (geometric mean MIC) (C. glabrata): 0.9 µg/mL
MFC (C. glabrata): 1 µg/mL (≈ 1.08 µM)
MIC50 (C. glabrata): 1 µg/mL (≈ 1.08 µM)
MIC90 (C. glabrata): 1 µg/mL (≈ 1.08 µM)
MIC Range (C. glabrata): 0.5 to 1.0 µg/mL
MIC50 (C. glabrata; listed as amphotericin B): 1.0 µg/mL (≈ 1.08 µM)
GM (geometric mean MIC) (C. parapsilosis): 0.7 µg/mL
MFC (C. parapsilosis): 2 µg/mL (≈ 2.16 µM)
MIC50 (C. parapsilosis): 0.5 µg/mL (≈ 0.541 µM)
MIC90 (C. parapsilosis): 1 µg/mL (≈ 1.08 µM)
MIC Range (C. parapsilosis): 0.5 to 1.0 µg/mL
GM (geometric mean MIC) (C. krusei): 1.29 µg/mL
MFC (C. krusei): 2 µg/mL (≈ 2.16 µM)
MIC50 (C. krusei): 1 µg/mL (≈ 1.08 µM)
MIC90 (C. krusei): 2 µg/mL (≈ 2.16 µM)
MIC Range (C. krusei): 0.5 to 2.0 µg/mL
MIC50 (C. krusei; listed as amphotericin B): 1.0 µg/mL (≈ 1.08 µM)
GM (geometric mean MIC) (C. rugosa): 0.83 µg/mL
MFC (C. rugosa): 2 µg/mL (≈ 2.16 µM)
MIC Range (C. rugosa): 0.5 to 1.0 µg/mL
GM (geometric mean MIC) (C. dubliniensis): 0.4 µg/mL
MIC50 (C. dubliniensis): 0.5 µg/mL (≈ 0.541 µM)
MIC90 (C. dubliniensis): 1 µg/mL (≈ 1.08 µM)
MIC Range (C. dubliniensis): 0.125 to 1 µg/mL
GM (A. flavus): 4.8 µg/mL
MIC50 (A. flavus): 2 µg/mL (≈ 2.16 µM)
MIC Range (A. flavus): 2 to 16 µg/mL
GM (A. fumigatus): 1.58 µg/mL
MIC50 (A. fumigatus): 2 µg/mL (≈ 2.16 µM)
MIC Range (A. fumigatus): 0.5 to 2 µg/mL
GM (A. glaucus): 0.7 µg/mL
MIC50 (A. glaucus): 0.5 µg/mL (≈ 0.541 µM)
MIC Range (A. glaucus): 0.25 to 1 µg/mL
GM (A. niger): 0.8 µg/mL
MIC50 (A. niger): 1 µg/mL (≈ 1.08 µM)
MIC Range (A. niger): 0.5 to 1 µg/mL
GM (A. terreus): 2.0 µg/mL
MIC50 (A. terreus): 2 µg/mL (≈ 2.16 µM)
MIC Range (A. terreus): 2 to 4 µg/mL
GM (A. versicolor): 0.9 µg/mL
MIC50 (A. versicolor): 1 µg/mL (≈ 1.08 µM)
MIC Range (A. versicolor): 0.25 to 2 µg/mL
GM (Acremonium spp.): 8 µg/mL
MIC50 (Acremonium spp.): 8 µg/mL (≈ 8.66 µM)
MIC Range (Acremonium spp.): 8 µg/mL (≈ 8.66 µM)
GM (Alternaria spp.): 0.25 µg/mL
MIC50 (Alternaria spp.): 0.25 µg/mL (≈ 0.271 µM)
MIC Range (Alternaria spp.): 0.25 to 0.5 µg/mL
GM (Cladosporium spp.): 0.7 µg/mL
MIC50 (Cladosporium spp.): 0.25 µg/mL (≈ 0.271 µM)
MIC Range (Cladosporium spp.): 0.25 to 0.5 µg/mL
GM [1]: 0.25 µg/mL
MIC50 [1]: 0.25 µg/mL (≈ 0.271 µM)
MIC Range [1]: 0.25 µg/mL (≈ 0.271 µM)
GM (Epioccum spp.): 1 µg/mL
MIC50 (Epioccum spp.): 1 µg/mL (≈ 1.08 µM)
MIC Range (Epioccum spp.): 1 µg/mL (≈ 1.08 µM)
GM (Paecilomyces spp.): 1.4 µg/mL
MIC50 (Paecilomyces spp.): 1 µg/mL (≈ 1.08 µM)
MIC Range (Paecilomyces spp.): 0.5 to 2 µg/mL
GM (Scopulariopsis spp.): 0.95 µg/mL
MIC50 (Scopulariopsis spp.): 1 µg/mL (≈ 1.08 µM)
MIC Range (Scopulariopsis spp.): 0.5 to 1 µg/mL
GM (E. jeanselmei): 4.67 µg/mL
MIC50 (E. jeanselmei): 4 µg/mL (≈ 4.33 µM)
MIC Range (E. jeanselmei): 2 to 8 µg/mL
increase in survival rate [2]: 80%
pIC50 [3]: 7.30
patients with nephrotoxicity [4]: ≤ 80%
ALB (Albumin) [5, 6]: 3.2
ALK (Alkaline Phosphatase) [5, 6]: 74
ALT (Alanine Aminotransferase) [5, 6]: 37
BUN (Blood Urea Nitrogen) [5, 6]: 15
Creat (Creatinine) [5, 6]: 0.6
GLOB (Globulin) [5, 6]: 2.6
Na (Sodium) [5, 6]: 140
ALB (Albumin) [5, 7]: 3.2
ALK (Alkaline Phosphatase) [5, 7]: 61
ALT (Alanine Aminotransferase) [5, 7]: 37
BUN (Blood Urea Nitrogen) [5, 7]: 16
Creat (Creatinine) [5, 7]: 0.6
GLOB (Globulin) [5, 7]: 2.7
Na (Sodium) [5, 7]: 140
TP (Total Protein) [5, 7]: 6.0
ALB (Albumin) [5, 8]: 3.4
ALK (Alkaline Phosphatase) [5, 8]: 69
ALT (Alanine Aminotransferase) [5, 8]: 36
BUN (Blood Urea Nitrogen) [5, 8]: 17
Creat (Creatinine) [5, 8]: 0.6
GLOB (Globulin) [5, 8]: 2.4
Na (Sodium) [5, 8]: 132
toxicity ([5]; rats, intravenously 1.5 mg/kg three times a week over 28 days): No toxicity was observed
